Assays:
AAK1 = AAK1 (Homo sapiens, UniProt Q2M2I8); test: Kinase profiling; assay type: binding; settings: read-out: % Ctrl @ 1000 nM
[1] = biological target: ABL1 (F317I)-phosphorylated (Homo sapiens, UniProt P00519, F317I); test: Kinase profiling; assay type: binding; settings: read-out: % Ctrl @ 1000 nM
[2] = biological target: ABL1 (M351T)-phosphorylated (Homo sapiens, UniProt P00519, M351T); test: Kinase profiling; assay type: binding; settings: read-out: % Ctrl @ 1000 nM
ALK (L1196M) = ALK (L1196M) (Homo sapiens, UniProt Q9UM73, L1196M); test: Kinase profiling; assay type: binding; settings: read-out: % Ctrl @ 1000 nM
AMPK-alpha1 = AMPK-alpha1 (Homo sapiens, UniProt Q13131); test: Kinase profiling; assay type: binding; settings: read-out: % Ctrl @ 1000 nM
AURKB = AURKB (Homo sapiens, UniProt Q96GD4); test: Kinase profiling; assay type: binding; settings: read-out: % Ctrl @ 1000 nM
AXL = AXL (Homo sapiens, UniProt P30530); test: Kinase profiling; assay type: binding; settings: read-out: % Ctrl @ 1000 nM
BRAF (V600E) = BRAF (V600E) (Homo sapiens, UniProt P15056, V600E); test: Kinase profiling; assay type: binding; settings: read-out: % Ctrl @ 1000 nM
CDK4-cyclinD3 = CDK4-cyclinD3 (Homo sapiens, UniProt P11802); test: Kinase profiling; assay type: binding; settings: read-out: % Ctrl @ 1000 nM
CDK7 = CDK7 (Homo sapiens, UniProt P50613); test: Kinase profiling; assay type: binding; settings: read-out: % Ctrl @ 1000 nM
CDK9 = CDK9 (Homo sapiens, UniProt P50750); test: Kinase profiling; assay type: binding; settings: read-out: % Ctrl @ 1000 nM
CDKL5 = CDKL5 (Homo sapiens, UniProt O76039); test: Kinase profiling; assay type: binding; settings: read-out: % Ctrl @ 1000 nM
CLK2 = CLK2 (Homo sapiens, UniProt P49760); test: Kinase profiling; assay type: binding; settings: read-out: % Ctrl @ 1000 nM
CSNK1G2 = CSNK1G2 (Homo sapiens, UniProt P78368); test: Kinase profiling; assay type: binding; settings: read-out: % Ctrl @ 1000 nM
DDR2 = DDR2 (Homo sapiens, UniProt Q16832); test: Kinase profiling; assay type: binding; settings: read-out: % Ctrl @ 1000 nM
EGFR (G719C) = EGFR (G719C) (Homo sapiens, UniProt P00533, G719C); test: Kinase profiling; assay type: binding; settings: read-out: % Ctrl @ 1000 nM
EPHA8 = EPHA8 (Homo sapiens, UniProt P29322); test: Kinase profiling; assay type: binding; settings: read-out: % Ctrl @ 1000 nM
ERN1 = ERN1 (Homo sapiens, UniProt O75460); test: Kinase profiling; assay type: binding; settings: read-out: % Ctrl @ 1000 nM
FLT1 = FLT1 (Homo sapiens, UniProt P17948); test: Kinase profiling; assay type: binding; settings: read-out: % Ctrl @ 1000 nM
FLT3 (D835H) = FLT3 (D835H) (Homo sapiens, UniProt P36888, D835H); test: Kinase profiling; assay type: binding; settings: read-out: % Ctrl @ 1000 nM
FLT3 (ITD, D835V) = test: Kinase profiling; assay type: binding
GRK7 = GRK7 (Homo sapiens, UniProt Q8WTQ7); test: Kinase profiling; assay type: binding; settings: read-out: % Ctrl @ 1000 nM
HCK = HCK (Homo sapiens, UniProt P08631); test: Kinase profiling; assay type: binding; settings: read-out: % Ctrl @ 1000 nM
HIPK4 = HIPK4 (Homo sapiens, UniProt Q8NE63); test: Kinase profiling; assay type: binding; settings: read-out: % Ctrl @ 1000 nM
INSRR = INSRR (Homo sapiens, UniProt P14616); test: Kinase profiling; assay type: binding; settings: read-out: % Ctrl @ 1000 nM
ITK = ITK (Homo sapiens, UniProt Q08881); test: Kinase profiling; assay type: binding; settings: read-out: % Ctrl @ 1000 nM
[3] = biological target: JAK1 (JH2domain-pseudokinase) (Homo sapiens, UniProt P23458); test: Kinase profiling; assay type: binding; settings: read-out: % Ctrl @ 1000 nM
LIMK1 = LIMK1 (Homo sapiens, UniProt P53667); test: Kinase profiling; assay type: binding; settings: read-out: % Ctrl @ 1000 nM
LZK = LZK (Homo sapiens, UniProt O43283); test: Kinase profiling; assay type: binding; settings: read-out: % Ctrl @ 1000 nM
MARK3 = MARK3 (Homo sapiens, UniProt P27448); test: Kinase profiling; assay type: binding; settings: read-out: % Ctrl @ 1000 nM
PAK4 = PAK4 (Homo sapiens, UniProt O96013); test: Kinase profiling; assay type: binding; settings: read-out: % Ctrl @ 1000 nM
PAK6 = PAK6 (Homo sapiens, UniProt Q9NQU5); test: Kinase profiling; assay type: binding; settings: read-out: % Ctrl @ 1000 nM
PDGFRA = PDGFRA (Homo sapiens, UniProt P16234); test: Kinase profiling; assay type: binding; settings: read-out: % Ctrl @ 1000 nM
PFTAIRE2 = PFTAIRE2 (Homo sapiens, UniProt Q96Q40); test: Kinase profiling; assay type: binding; settings: read-out: % Ctrl @ 1000 nM
PKMYT1 = PKMYT1 (Homo sapiens, UniProt Q99640); test: Kinase profiling; assay type: binding; settings: read-out: % Ctrl @ 1000 nM
SRPK1 = SRPK1 (Homo sapiens, UniProt Q96SB4); test: Kinase profiling; assay type: binding; settings: read-out: % Ctrl @ 1000 nM
TTK = TTK (Homo sapiens, UniProt P33981); test: Kinase profiling; assay type: binding; settings: read-out: % Ctrl @ 1000 nM
YANK3 = YANK3 (Homo sapiens, UniProt Q86UX6); test: Kinase profiling; assay type: binding; settings: read-out: % Ctrl @ 1000 nM
[4] = system: CD4 (T cell surface marker); test: CD4 IHC test in MC-38 tumor; assay type: in vivo, mouse; settings: MC-38 tumors; vs vehicle group
Protocol: MC38 tumor tissues were collected at the end of the in vivo efficacy trial. The tumor tissue was then embedded in paraffin. The expression of CD3/CD4/CD8/F4-80 were tested by immunohistochemistry stain.

Chain of BRAF (V600E) (P15056 whole entry V600E): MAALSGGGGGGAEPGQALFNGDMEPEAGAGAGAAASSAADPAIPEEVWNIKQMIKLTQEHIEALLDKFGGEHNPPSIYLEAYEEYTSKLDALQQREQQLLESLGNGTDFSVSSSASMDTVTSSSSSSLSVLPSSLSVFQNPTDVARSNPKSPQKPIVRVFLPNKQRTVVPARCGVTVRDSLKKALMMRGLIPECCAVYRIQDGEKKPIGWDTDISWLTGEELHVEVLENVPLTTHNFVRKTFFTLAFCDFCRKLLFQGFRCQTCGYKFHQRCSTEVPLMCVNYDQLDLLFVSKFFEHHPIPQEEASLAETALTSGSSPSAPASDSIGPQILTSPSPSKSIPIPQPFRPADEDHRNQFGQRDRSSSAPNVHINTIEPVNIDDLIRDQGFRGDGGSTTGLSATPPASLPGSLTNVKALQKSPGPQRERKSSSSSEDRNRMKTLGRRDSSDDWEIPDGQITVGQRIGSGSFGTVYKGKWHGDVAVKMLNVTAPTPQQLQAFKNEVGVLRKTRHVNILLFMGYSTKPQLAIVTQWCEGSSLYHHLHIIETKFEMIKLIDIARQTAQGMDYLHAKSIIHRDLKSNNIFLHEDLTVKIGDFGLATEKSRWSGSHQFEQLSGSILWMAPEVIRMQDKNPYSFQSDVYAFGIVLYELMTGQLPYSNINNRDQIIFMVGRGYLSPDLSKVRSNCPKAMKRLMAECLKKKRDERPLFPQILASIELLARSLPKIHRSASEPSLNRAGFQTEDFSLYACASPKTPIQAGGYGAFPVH
Chain of DDR2 (Q16832 22-855): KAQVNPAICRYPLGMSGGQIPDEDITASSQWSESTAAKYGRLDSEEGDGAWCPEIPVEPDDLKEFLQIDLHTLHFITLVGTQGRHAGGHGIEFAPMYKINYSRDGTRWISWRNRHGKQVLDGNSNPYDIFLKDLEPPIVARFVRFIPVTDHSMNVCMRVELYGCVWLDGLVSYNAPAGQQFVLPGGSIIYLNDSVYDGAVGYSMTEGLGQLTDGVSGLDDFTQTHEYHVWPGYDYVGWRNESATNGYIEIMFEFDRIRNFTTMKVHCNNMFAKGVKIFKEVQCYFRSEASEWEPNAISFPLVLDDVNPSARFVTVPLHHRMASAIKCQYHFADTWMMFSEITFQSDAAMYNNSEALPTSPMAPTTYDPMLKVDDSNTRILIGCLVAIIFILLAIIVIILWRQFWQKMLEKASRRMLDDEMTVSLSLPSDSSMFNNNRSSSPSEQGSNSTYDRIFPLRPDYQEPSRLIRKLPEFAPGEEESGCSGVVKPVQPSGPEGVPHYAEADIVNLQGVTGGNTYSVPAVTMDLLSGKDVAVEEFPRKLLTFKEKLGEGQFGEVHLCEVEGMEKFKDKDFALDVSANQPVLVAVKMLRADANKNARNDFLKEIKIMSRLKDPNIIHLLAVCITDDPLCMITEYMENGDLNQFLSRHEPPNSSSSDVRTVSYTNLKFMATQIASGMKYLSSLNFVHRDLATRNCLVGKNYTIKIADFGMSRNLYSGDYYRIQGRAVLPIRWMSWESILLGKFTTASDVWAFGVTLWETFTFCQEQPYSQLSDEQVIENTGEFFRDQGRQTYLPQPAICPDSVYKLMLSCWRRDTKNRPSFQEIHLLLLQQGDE
Chain of CDKL5 (O76039 whole entry): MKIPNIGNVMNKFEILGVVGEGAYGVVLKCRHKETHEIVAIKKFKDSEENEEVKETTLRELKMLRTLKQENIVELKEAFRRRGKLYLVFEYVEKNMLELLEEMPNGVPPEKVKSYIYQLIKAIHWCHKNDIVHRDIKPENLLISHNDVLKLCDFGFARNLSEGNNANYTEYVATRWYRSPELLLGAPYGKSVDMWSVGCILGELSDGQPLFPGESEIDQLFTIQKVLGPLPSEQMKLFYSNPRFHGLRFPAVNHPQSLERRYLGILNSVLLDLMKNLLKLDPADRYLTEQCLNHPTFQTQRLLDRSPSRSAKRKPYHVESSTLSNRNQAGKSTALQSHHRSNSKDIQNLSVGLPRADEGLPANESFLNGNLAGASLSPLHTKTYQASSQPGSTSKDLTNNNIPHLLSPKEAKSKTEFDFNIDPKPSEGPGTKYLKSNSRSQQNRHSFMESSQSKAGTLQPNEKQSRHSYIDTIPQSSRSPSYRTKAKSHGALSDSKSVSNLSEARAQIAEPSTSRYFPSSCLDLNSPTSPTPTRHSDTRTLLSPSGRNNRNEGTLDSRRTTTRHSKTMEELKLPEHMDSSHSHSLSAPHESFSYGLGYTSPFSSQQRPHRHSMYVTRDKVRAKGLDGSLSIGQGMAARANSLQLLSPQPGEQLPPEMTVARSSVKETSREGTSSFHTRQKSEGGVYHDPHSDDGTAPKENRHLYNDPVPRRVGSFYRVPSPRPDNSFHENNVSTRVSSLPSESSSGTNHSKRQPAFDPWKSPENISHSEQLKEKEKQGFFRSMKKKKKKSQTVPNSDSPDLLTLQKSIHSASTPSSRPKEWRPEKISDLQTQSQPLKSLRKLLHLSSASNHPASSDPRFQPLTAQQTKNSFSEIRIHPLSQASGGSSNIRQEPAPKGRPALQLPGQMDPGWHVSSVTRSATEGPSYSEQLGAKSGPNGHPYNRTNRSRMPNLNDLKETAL
Chain of CSNK1G2 (P78368 whole entry): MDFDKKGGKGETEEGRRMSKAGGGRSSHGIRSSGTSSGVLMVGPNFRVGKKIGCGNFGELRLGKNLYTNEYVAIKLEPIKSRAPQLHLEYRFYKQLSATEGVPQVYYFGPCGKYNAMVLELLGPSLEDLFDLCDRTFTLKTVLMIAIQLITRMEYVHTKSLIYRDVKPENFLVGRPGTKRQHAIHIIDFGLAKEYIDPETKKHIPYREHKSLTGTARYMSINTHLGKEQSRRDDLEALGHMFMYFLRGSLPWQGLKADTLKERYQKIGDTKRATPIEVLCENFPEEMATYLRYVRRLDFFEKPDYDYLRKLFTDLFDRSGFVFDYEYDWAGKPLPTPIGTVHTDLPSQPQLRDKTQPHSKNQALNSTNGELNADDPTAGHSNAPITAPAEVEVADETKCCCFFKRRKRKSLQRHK
Chain of HCK (P08631 whole entry): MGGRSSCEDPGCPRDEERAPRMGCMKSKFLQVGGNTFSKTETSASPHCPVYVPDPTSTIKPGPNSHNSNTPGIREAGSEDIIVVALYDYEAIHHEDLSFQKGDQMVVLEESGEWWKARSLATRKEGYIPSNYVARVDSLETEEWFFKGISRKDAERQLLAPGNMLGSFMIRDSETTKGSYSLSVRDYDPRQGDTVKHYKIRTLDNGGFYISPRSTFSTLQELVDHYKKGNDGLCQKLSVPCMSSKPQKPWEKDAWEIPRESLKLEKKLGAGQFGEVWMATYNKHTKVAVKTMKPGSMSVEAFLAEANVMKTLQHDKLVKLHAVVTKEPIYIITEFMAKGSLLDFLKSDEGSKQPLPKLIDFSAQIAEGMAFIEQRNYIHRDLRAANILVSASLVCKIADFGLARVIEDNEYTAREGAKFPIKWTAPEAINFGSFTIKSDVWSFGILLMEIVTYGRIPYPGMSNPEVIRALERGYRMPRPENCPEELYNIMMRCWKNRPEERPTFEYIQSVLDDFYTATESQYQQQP
Chain of CLK2 (P49760 whole entry): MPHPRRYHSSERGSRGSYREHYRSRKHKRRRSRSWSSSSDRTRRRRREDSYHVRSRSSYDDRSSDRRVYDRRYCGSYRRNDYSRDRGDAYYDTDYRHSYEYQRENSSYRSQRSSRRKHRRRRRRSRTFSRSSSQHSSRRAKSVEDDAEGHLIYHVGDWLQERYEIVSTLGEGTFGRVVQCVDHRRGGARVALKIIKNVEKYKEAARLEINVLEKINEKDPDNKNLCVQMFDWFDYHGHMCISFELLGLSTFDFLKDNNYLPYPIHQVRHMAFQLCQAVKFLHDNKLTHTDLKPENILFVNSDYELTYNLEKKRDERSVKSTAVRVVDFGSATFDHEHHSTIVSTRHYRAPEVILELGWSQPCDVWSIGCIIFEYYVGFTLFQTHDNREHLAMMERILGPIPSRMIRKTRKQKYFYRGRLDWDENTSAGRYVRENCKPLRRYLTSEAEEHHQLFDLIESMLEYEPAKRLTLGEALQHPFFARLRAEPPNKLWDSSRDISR
Chain of CDK7 (P50613 whole entry): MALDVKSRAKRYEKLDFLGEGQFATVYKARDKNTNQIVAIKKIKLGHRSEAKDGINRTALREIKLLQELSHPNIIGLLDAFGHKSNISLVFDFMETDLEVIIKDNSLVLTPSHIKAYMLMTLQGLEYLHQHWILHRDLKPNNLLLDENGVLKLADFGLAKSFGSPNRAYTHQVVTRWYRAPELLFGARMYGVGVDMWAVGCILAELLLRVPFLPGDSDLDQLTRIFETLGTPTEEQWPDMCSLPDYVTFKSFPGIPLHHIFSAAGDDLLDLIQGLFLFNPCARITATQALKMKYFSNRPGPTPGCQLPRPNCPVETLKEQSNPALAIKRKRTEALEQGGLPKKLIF
Chain of PAK4 (O96013 whole entry): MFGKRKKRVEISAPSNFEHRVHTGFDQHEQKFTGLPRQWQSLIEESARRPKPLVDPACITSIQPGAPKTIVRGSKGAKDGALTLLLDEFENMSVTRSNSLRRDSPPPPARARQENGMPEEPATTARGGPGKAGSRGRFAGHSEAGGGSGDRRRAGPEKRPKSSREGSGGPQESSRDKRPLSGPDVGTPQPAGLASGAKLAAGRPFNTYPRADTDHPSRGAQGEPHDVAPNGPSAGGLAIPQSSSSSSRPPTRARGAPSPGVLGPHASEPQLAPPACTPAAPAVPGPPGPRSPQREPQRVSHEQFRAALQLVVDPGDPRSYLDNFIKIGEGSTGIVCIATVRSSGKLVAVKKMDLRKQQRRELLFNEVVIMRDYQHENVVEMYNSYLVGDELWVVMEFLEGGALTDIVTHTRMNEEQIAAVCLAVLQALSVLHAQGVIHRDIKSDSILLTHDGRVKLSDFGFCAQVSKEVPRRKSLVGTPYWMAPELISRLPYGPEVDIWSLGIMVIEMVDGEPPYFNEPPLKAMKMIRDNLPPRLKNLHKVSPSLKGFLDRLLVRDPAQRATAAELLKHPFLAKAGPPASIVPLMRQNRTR

Cc1cc(Oc2cc(NC(=O)C3CC3)ncn2)ccc1NC(=O)Nc1ccc(Cl)c(C(F)(F)F)c1 [CBT-102]
remaining activity at 1 µM (AAK1): 96%
remaining activity at 1 µM [1]: 95%
remaining activity at 1 µM [2]: 65%
remaining activity at 1 µM (ALK (L1196M)): 94%
remaining activity at 1 µM (AMPK-alpha1): 98%
remaining activity at 1 µM (AURKB): 49%
remaining activity at 1 µM (AXL): 56%
remaining activity at 1 µM (BRAF (V600E)): 1.8%
remaining activity at 1 µM (CDK4-cyclinD3): 100%
remaining activity at 1 µM (CDK7): 25%
remaining activity at 1 µM (CDK9): 46%
remaining activity at 1 µM (CDKL5): 97%
remaining activity at 1 µM (CLK2): 100%
remaining activity at 1 µM (CSNK1G2): 94%
remaining activity at 1 µM (DDR2): 1.1%
remaining activity at 1 µM (EGFR (G719C)): 66%
remaining activity at 1 µM (EPHA8): 9.1%
remaining activity at 1 µM (ERN1): 78%
remaining activity at 1 µM (FLT1): 0.8%
remaining activity at 1 µM (FLT3 (D835H)): 42%
% Ctrl @ 1000 nM (FLT3 (ITD, D835V)): 98%
remaining activity at 1 µM (GRK7): 100%
remaining activity at 1 µM (HCK): 54%
remaining activity at 1 µM (HIPK4): 11%
remaining activity at 1 µM (INSRR): 100%
remaining activity at 1 µM (ITK): 90%
remaining activity at 1 µM [3]: 100%
remaining activity at 1 µM (LIMK1): 74%
remaining activity at 1 µM (LZK): 97%
remaining activity at 1 µM (MARK3): 100%
remaining activity at 1 µM (PAK4): 100%
remaining activity at 1 µM (PAK6): 94%
remaining activity at 1 µM (PDGFRA): 2.1%
remaining activity at 1 µM (PFTAIRE2): 60%
remaining activity at 1 µM (PKMYT1): 97%
remaining activity at 1 µM (SRPK1): 56%
remaining activity at 1 µM (TTK): 61%
remaining activity at 1 µM (YANK3): 88%
effect on T cell surface marker CD4 (IHC) [4]: no significant effect
